Data from patent US8101745B2, “Lung-targeted drugs” (priority 2004, dated 2012).
“And” between values parts separate entries of the source, which are not always exact repeats. Equal values may be shown once. Read-outs that look alike come from different tables or passages of the source.

Experiments:
Vaccinia Copenhagen [1] = conditions: cited from earlier work; for EC50: Vaccinia Copenhagen, effective dose 50%
Vaccinia Copenhagen [2] = assay type: cell-based
Cowpox Brighton [3] = conditions: cited from earlier work
[4] = Oral pharmacokinetics of 14C-labeled drug, liver and lung levels in mice; conditions: for AUC 14C-Drug Liver / AUC 14C-Drug Lung / Ratio Lung/Liver / Ratio Liver/Lung: 10 mg/kg single oral dose, 0 to 72 hours; for Ratio Lung/Liver / Ratio Liver/Lung: ratio of AUC
ectromelia virus [5] = conditions: mouse, in vivo, po, cited from earlier work
Cowpox Brighton [6] = assay type: cell-based
[7] = toxic dose 50%; read-out: TC50 (the source's name); cited from earlier work
[8] = in vivo; cited from earlier work
ectromelia virus [9] = test system: ectromelia virus; design: species or system Female A/NCR mice; conditions: mouse, in vivo, po

Row | SMILES | EC50 (Vaccinia Copenhagen [1]) | SI (Vaccinia Copenhagen [2]) | EC50 (Cowpox Brighton [3]) | AUC 14C-Drug Liver ([4]; mice) | AUC 14C-Drug Lung ([4]; mice) | Ratio Lung/Liver [4] | Ratio Liver/Lung ([4]; 10 mg/kg) | SI (Cowpox Brighton [6]) | CC50 [7] | Lung titer (ectromelia virus [5]; 10 mg/kg) | Mortality (ectromelia virus [5]; 10 mg/kg) | Spleen titer (ectromelia virus [5]; 10 mg/kg) | further results
1 | CCCCCCCCCCCCCCCCCCOCCOP(=O)(O)CO[C@H](CO)Cn1ccc(N)nc1=O [ODE-CDV, octadecyloxyethyl-CDV] | 600 nM | 105 | 500 nM | 1215 nmol · gm · hrs | 60 nmol · gm · hrs | 0.05 | 20.3 | 105 | 21000 nM |  |  |  | Liver titer (ectromelia virus [5]; 5 mg/kg): <10^2 pfu/ml; Lung titer (ectromelia virus [5]; 5 mg/kg): 3 × 10^5 pfu/ml; Mortality (ectromelia virus [5]; 5 mg/kg): 0%; Spleen titer (ectromelia virus [5]; 5 mg/kg): <10^2 pfu/ml
2 | Nc1ccn(C[C@@H](CO)OCP(=O)(O)O)c(=O)n1 [CDV, cidofovir] | 31000 nM | >10 | 42000 nM |  |  |  |  | >7.5 | > 317000 nM | 3 × 10^6 pfu/ml | 100% | 3 × 10^6 pfu/ml | oral bioavailability [8]: < 6%
3 | CCCCCCCCCCCCCCCCOCCCOP(=O)(O)CO[C@H](CO)Cn1ccc(N)nc1=O [HDP-CDV, hexadecyloxypropyl-CDV] | 600 nM | 48 | 500 nM | 1367 nmol · gm · hrs | 49 nmol · gm · hrs | 0.04 | 27.9 | 58 | 29000 nM | 5 × 10^4 pfu/ml | 0% | <10^2 pfu/ml | Liver titer (ectromelia virus [5]; 10 mg/kg): <10^2 pfu/ml
4 | CCCCCCCCCCCCCCCCCCOC[C@H](COP(=O)(O)CO[C@H](CO)Cn1ccc(N)nc1=O)OCc1ccccc1 [ODBG-CDV, 1-O-Octadecyl-2-O-benzyl-sn-glycero-3-cidofovir] | 400 nM | 118 | 300 nM | 318 nmol · gm · hrs | 581 nmol · gm · hrs | 1.82 |  | 157 | 47000 nM |  |  |  | activity against vaccinia virus in vitro (Vaccinia Copenhagen [1]; in words): highly active; activity against cowpox virus in vitro (Cowpox Brighton [3]): highly active; Lung levels of 14C-labeled drug ([4]; 10 mg/kg oral, mice, over 72 hours, compared with HDP-CDV or ODE-CDV (FIG. 1)): much higher; liver levels of 14C-labeled drug ([4]; 10 mg/kg oral, mice, over 72 hours, compared with HDP-CDV or ODE-CDV (FIG. 2)): lower; lung area under curve relative to alkoxyalkyl derivatives of CDV ([4]; given orally, versus non lung-targeted alkoxyalkyl derivatives): 10 fold; Ratio Liver/Lung [4]: 0.55; Mortality day 21 (ectromelia virus [9]): 2/10 and 0/10; protection from death (ectromelia virus [9]): provides protection from death; Mean time to death (ectromelia virus [9]; 2 mg/kg/day): 13.0 ± 1.4
